From PubChem BioAssay AID652252 (Sanford-Burnham Center for Chemical Genomics, 2013) come the findings set out here.

This experiment concerns HT1080 cells viability, ATPLite luminescence, overnight. Kind of experiment: HT1080 parental cell cytotoxicity, dose response, cytotoxicity control for MT1-MMP activation inhibitor project, ATPLite luminescence, set 1 (AID 652252). (In ATP-based viability assays light output follows the ATP content of the culture.)

Activity calls are given as the source filed them. No rule for the calls is given here.

`CC1=NN(c2ccccc2)C(=O)/C1=C/C=C/C=C/N(C)C`: the IC50 is 10.2 µM. Turning to `CN1C2=CC=CC=CC2=[N+](C)C12C=CC(=[N+]([O-])[O-])C=C2[N+](=O)[O-]` (configuration not stated), the IC50 was > 80 µM (inactive). On to `Cc1cccc[n+]1CC(=O)/C=C1\N(C)c2ccccc2C1(C)C`, for which the IC50 was 70.6 µM (inactive). For `CCN(CC)c1ccc(/C=C2\C(=O)N(c3nnc(C)c(=O)[nH]3)N=C2C)cc1`, the IC50 was > 80 µM (inactive). Turning to `CC(=O)Oc1ccc2oc(/C=C/N(C)C)c([N+](=O)[O-])c2c1`, the IC50 was > 80 µM (inactive). As for `CC[n+]1c(/C=C/N(C)c2ccccc2)sc2ccc(Cl)cc21`, the figure is > 80 µM (inactive).

For `O=C1c2ccccc2C(=O)c2c(O)c(O)cc(O)c21`, the IC50 is > 80 µM (inactive). With `Nc1ccc(NC(=O)c2ccccc2)c2c1C(=O)c1ccccc1C2=O`, the IC50 was > 80 µM (inactive). As for `Cc1c(C(=O)OCC(=O)NCC2CCCO2)oc2ccccc12` (configuration not stated), the IC50 was > 40 µM (inactive). Take `Nc1nc(-c2ccc(Cl)cc2)c(N=Nc2ccc(S(=O)(=O)N3CCOCC3)cc2)s1`: the IC50 was 30.3 µM (inactive).

In the case of `COc1ccc(C)cc1Nc1nc(-c2c(C)[nH]c3ccccc23)cs1`, the IC50 was > 80 µM (inactive). As for `CCCN1C(=O)/C(=C2/C=Cc3ccccc3N2CC)SC1=S`, the figure is 64.9 µM (inactive); as for `O=S(=O)(O)c1cc(Cl)cc(N=Nc2ccc(O)cc2O)c1O`, 1.42 µM. As for `CN=C1C=C/C(=N/N=c2\ccn(O)cc2C)C=C1C`, the IC50 was > 80 µM (inactive).

As for `CCN(CC)c1ccc(C(=C2C=CC(=[N+](CC)CC)C=C2)c2ccc(N(CC)CC)cc2)cc1`, the IC50 is > 80 µM (inactive). As for `CNc1ccc2nc3ccccc3[n+](C)c2c1`, the figure is 11.4 µM; as for `CC1=NN(c2ccccc2)C(=O)/C1=C/C=C/c1ccc(N(C)C)cc1`, > 80 µM (inactive). As for `Nc1nc(-c2ccccc2)c(N=Nc2cccc3ccccc23)s1`, the figure is > 80 µM (inactive); as for `O=C1c2cccc(NCCCNCCO)c2C(=O)c2cccc(NCCCNCCO)c21`, > 80 µM (inactive); as for `Cc1cc(N(CCO)CCO)ccc1N=Nc1cc(F)ccc1F`, > 80 µM (inactive).

Consider `COc1cc(N(C)C)ccc1C=c1c2ccccc2n2c1cc(-c1ccccc1)[n+]2C`, for which the IC50 was 1.43 µM. With `CC1=NN(c2ccccc2)C(=O)C1N=Nc1ccc(N)cc1` (configuration not stated), the IC50 was > 80 µM (inactive). Consider `C/C(=C/c1oc2ccc(O)cc2c1[N+](=O)[O-])N(C)C`, for which the IC50 was > 80 µM (inactive). In the case of `COc1ccc(-c2oc3ccc(-c4ccc(OC)nc4)cc3c2C#CC2(O)CCCCC2)cc1`, the IC50 was > 80 µM (inactive). As for `CC1=C/C(=C(/c2cc(C)c(O)c(Br)c2)c2ccccc2S(=O)(=O)O)C=C(Br)C1=O`, the figure is > 80 µM (inactive).

As for `CNc1c(C(=O)O)ccc2c1C(=O)c1ccccc1C2=O`, the IC50 is > 80 µM (inactive). On to `CN(C)c1ccc(C=c2c3ccccc3n3c2c2c([n+]3C)CCCC2)cc1`, for which the IC50 was > 80 µM (inactive). Take `COc1ccc(Nc2ccccc2N)cc1`: the half-maximal inhibitory concentration (IC50) was 2.38 µM. For the compound `C[N+]1=C(/C=C/Nc2ccccc2)C(C)(C)c2ccccc21`, the IC50 was 16.9 µM. As for `CCn1c(=O)c(=O)[nH]c2cc(C(=O)NC3CCCc4ccccc43)ccc21` (configuration not stated), the figure is > 80 µM (inactive); as for `O=Nc1c(-c2c(O)[nH]c3cc(Br)ccc23)[nH]c2ccccc12`, 66.1 µM (inactive). As for `CN1C(=O)/C(=C2/C=Cc3ccccc3N2CCCS(=O)(=O)O)SC1=S`, the figure is > 80 µM (inactive); as for `CNc1ccccc1C(C)(C)c1cc(-c2cccc(Br)c2)no1`, > 80 µM (inactive). As for `N#CC(C#N)=NNc1ccc([N+](=O)[O-])cc1`, the figure is > 80 µM (inactive). In the case of `CC1CC(C)CN(C(=O)c2ccc3c(c2NCCO)C(=O)c2ccccc2C3=O)C1` (configuration not stated), the IC50 is > 80 µM (inactive). On to `COc1ccccc1C(=O)NC(=S)/C=C1/N(C)c2ccccc2C1(C)C`, for which the IC50 was > 80 µM (inactive). For the compound `Cc1ccccc1C1=C/C(=C(\SS/C(C(=O)c2ccc(OCC(=O)O)c(Cl)c2Cl)=C2\C=C(c3ccccc3C)SS2)C(=O)c2ccc(OCC(=O)O)c(Cl)c2Cl)SS1`, the IC50 is 51.8 µM (inactive).

In the case of `CNc1ccccc1C(C)(C)c1cc(-c2cccc(OC)c2)no1`, the IC50 is > 80 µM (inactive).

Consider `COc1ccc(C)cc1N=Nc1ccc(O)c2ncccc12`, for which the IC50 is > 80 µM (inactive). As for `O=C(NNc1c2ccccc2nc2ccccc12)c1cc2ccccc2cc1O`, the figure is > 80 µM (inactive); as for `CC1(C)CCCN(C(=O)c2ccc3c(c2NCCO)C(=O)c2ccccc2C3=O)C1`, > 80 µM (inactive). `CCOc1ccc2nc(N=Nc3c(O)[nH]c(=S)[nH]c3=O)sc2c1`: the IC50 is 38.1 µM (inactive). As to `CN1C(=O)/C(=C\c2cc(N=Nc3ccccc3)ccc2O)SC1=S`, the IC50 was > 80 µM (inactive). Regarding `O=C(NNc1c2ccccc2nc2ccccc12)c1ccc(Cl)cc1`, the IC50 is > 40 µM (inactive). As for `Cc1ccc(S(=O)(=O)/N=C2\C=C(NS(=O)(=O)c3ccccc3)C(=O)c3ccccc32)c(C)c1`, the figure is > 80 µM (inactive); as for `CCCN1/C(=C2/SC(=S)N(CC)C2=O)C=Cc2ccccc21`, > 80 µM (inactive). As to `CCOC(=O)C1=C(C)N=c2s/c(=C\c3ccc(OC(C)=O)c(OCC)c3)c(=O)n2C1/C=C/c1ccccc1` (configuration not stated), the IC50 was 3.54 µM.

As a reminder, the IC50 is the point on the concentration scale where inhibition reaches its midpoint.
